According to ChEMBL document CHEMBL5512637, “Development of Membrane-Targeting Fluorescent 2-Phenyl-1H-phenanthro[9,10-d]imidazole-Antimicrobial Peptide Mimic Conjugates against Methicillin-Resistant Staphylococcus aureus” (J Med Chem, 2024):
Activity calls are given as the source filed them. The rule behind the calls is not given here.

What was measured:
Staphylococcus aureus [1] = assay: Antibacterial activity against Staphylococcus aureus ATCC 29213 incubated for 16 to 18 hrs CLSI based by microbroth dilution assay; format: functional; settings: time 16-18 hrs
Escherichia coli = assay: Antibacterial activity against Escherichia coli ATCC 25922 incubated for 16 to 18 hrs CLSI based by microbroth dilution assay; format: functional; settings: time 16-18 hrs
Staphylococcus aureus [2] = assay: Antibacterial activity against methicillin-resistant Staphylococcus aureus clinical isolate M-1 incubated for 16 to 18 hrs CLSI based by microbroth dilution assay; format: functional; settings: time 16-18 hrs
Staphylococcus aureus [3] = assay: Antibacterial activity against methicillin-resistant Staphylococcus aureus clinical isolate M-2 incubated for 16 to 18 hrs CLSI based by microbroth dilution assay; format: functional; settings: time 16-18 hrs
Staphylococcus aureus [4] = assay: Antibacterial activity against methicillin-resistant Staphylococcus aureus clinical isolate M-3 incubated for 16 to 18 hrs CLSI based by microbroth dilution assay; format: functional; settings: time 16-18 hrs
Staphylococcus aureus [5] = assay: Antibacterial activity against methicillin-resistant Staphylococcus aureus clinical isolate M-4 incubated for 16 to 18 hrs CLSI based by microbroth dilution assay; format: functional; settings: time 16-18 hrs
Staphylococcus aureus [6] = assay: Antibacterial activity against methicillin-resistant Staphylococcus aureus clinical isolate M-5 incubated for 16 to 18 hrs CLSI based by microbroth dilution assay; format: functional; settings: time 16-18 hrs
Staphylococcus aureus [7] = assay: Antibacterial activity against methicillin-resistant Staphylococcus aureus clinical isolate M-6 incubated for 16 to 18 hrs CLSI based by microbroth dilution assay; format: functional; settings: time 16-18 hrs
Staphylococcus aureus [8] = assay: Antibacterial activity against methicillin-resistant Staphylococcus aureus clinical isolate M-7 incubated for 16 to 18 hrs CLSI based by microbroth dilution assay; format: functional; settings: time 16-18 hrs
Staphylococcus aureus [9] = assay: Antibacterial activity against methicillin-resistant Staphylococcus aureus clinical isolate M-8 incubated for 16 to 18 hrs CLSI based by microbroth dilution assay; format: functional; settings: time 16-18 hrs
Staphylococcus aureus [10] = assay: Antibacterial activity against methicillin-resistant Staphylococcus aureus clinical isolate M-9 incubated for 16 to 18 hrs CLSI based by microbroth dilution assay; format: functional; settings: time 16-18 hrs
Staphylococcus aureus [11] = assay: Antibacterial activity against methicillin-resistant Staphylococcus aureus clinical isolate M-10 incubated for 16 to 18 hrs CLSI based by microbroth dilution assay; format: functional; settings: time 16-18 hrs
Staphylococcus aureus [12] = assay: Bactericidal activity against Staphylococcus aureus ATCC 29213 assessed as increase in fluorescence intensity at MIC incubated for 180 mins; format: functional, organism-based
[13] = Hemolytic activity in sheep erythrocytes incubated for 1 hr by absorbance based assay; format: toxicity, cell-based, Ovis aries, Erythrocyte
[14] = Selectivity index, ratio of HC50 for sheep erythrocytes to MIC for Staphylococcus aureus ATCC 29213; format: toxicity; settings: read-out: Selectivity Index
Staphylococcus aureus [15] = assay: Bactericidal activity against Staphylococcus aureus ATCC 29213 assessed as fluorescent signal at MIC incubated for 20 mins; format: functional, organism-based
Staphylococcus aureus [16] = assay: Bactericidal activity against Staphylococcus aureus ATCC 29213 at 8 times MIC incubated upto 8 hrs by time kill assay; format: functional, organism-based
Staphylococcus aureus [17] = assay: Bactericidal activity against methicillin-resistant Staphylococcus aureus clinical isolate M-4 at 8 times MIC incubated upto 8 hrs by time kill assay; format: functional, organism-based
Staphylococcus aureus [18] = assay: Antibacterial activity against methicillin-resistant Staphylococcus aureus clinical isolate M-4 infected in KM mouse assessed as survival rate of bacteria at 5 mg/kg, sc measured after 24 hrs relative to control; format: functional
[19] = Toxicity in KM mouse infected with methicillin-resistant Staphylococcus aureus clinical isolate M-4 assessed as histopathological abnormality in heart at 5 mg/kg, sc measured after 24 hrs by H and E staining based analysis; format: organism-based; settings: in vivo
[20] = Toxicity in KM mouse infected with methicillin-resistant Staphylococcus aureus clinical isolate M-4 assessed as histopathological abnormality in liver at 5 mg/kg, sc measured after 24 hrs by H and E staining based analysis; format: organism-based; settings: in vivo
[21] = Toxicity in KM mouse infected with methicillin-resistant Staphylococcus aureus clinical isolate M-4 assessed as histopathological abnormality in spleen at 5 mg/kg, sc measured after 24 hrs by H and E staining based analysis; format: organism-based; settings: in vivo
[22] = Toxicity in KM mouse infected with methicillin-resistant Staphylococcus aureus clinical isolate M-4 assessed as histopathological abnormality in lungs at 5 mg/kg, sc measured after 24 hrs by H and E staining based analysis; format: organism-based; settings: in vivo
[23] = Toxicity in KM mouse infected with methicillin-resistant Staphylococcus aureus clinical isolate M-4 assessed as histopathological abnormality in kidneys at 5 mg/kg, sc measured after 24 hrs by H and E staining based analysis; format: organism-based; settings: in vivo

SMILES | MIC (Staphylococcus aureus [1]) [µg/mL] | MIC (Escherichia coli) [µg/mL] | MIC (Staphylococcus aureus [2]) [µg/mL] | MIC (Staphylococcus aureus [3]) [µg/mL] | MIC (Staphylococcus aureus [4]) [µg/mL] | MIC (Staphylococcus aureus [5]) [µg/mL] | MIC (Staphylococcus aureus [6]) [µg/mL] | MIC (Staphylococcus aureus [7]) [µg/mL] | MIC (Staphylococcus aureus [8]) [µg/mL] | MIC (Staphylococcus aureus [9]) [µg/mL] | MIC (Staphylococcus aureus [10]) [µg/mL] | MIC (Staphylococcus aureus [11]) [µg/mL] | HC50 at 1 h [13] [µg/mL] | selectivity ratio [14] | other results
CN(C)c1ccc(-c2nc3c4ccccc4c4ccccc4c3n2CCCCBr)cc1 | > 64 | > 64 | > 64 | > 64 | > 64 | > 64 | > 64 | > 64 | > 64 | > 64 | > 64 | > 64 | – | – | Activity (Staphylococcus aureus [12]): inactive
CCCCCNC(=O)C[N+](C)(C)CCCn1c(-c2ccc(N(C)C)cc2)nc2c3ccccc3c3ccccc3c21.[Br-] | 8 | 64 | 8 | 8 | 8 | 4 | 8 | 8 | 4 | 8 | 4 | 8 | > 640 | > 80 | Activity (Staphylococcus aureus [15]): Active
CN[C@H](CC(C)C)C(=O)N[C@H]1C(=O)N[C@@H](CC(N)=O)C(=O)N[C@H]2C(=O)N[C@H]3C(=O)N[C@H](C(=O)N[C@H](C(=O)O)c4cc(O)cc(O)c4-c4cc3ccc4O)[C@H](O)c3ccc(c(Cl)c3)Oc3cc2cc(c3O[C@@H]2O[C@H](CO)[C@@H](O)[C@H](O)[C@H]2O[C@H]2C[C@](C)(N)[C@H](O)[C@H](C)O2)Oc2ccc(cc2Cl)[C@H]1O [VANCOMYCIN] | – | – | – | – | – | – | – | – | – | – | – | – | – | – | Activity (Staphylococcus aureus [16]): Active; Activity (Staphylococcus aureus [17]): Active; survival at 5 mg/kg (Staphylococcus aureus [18]): 2.15%; Activity [19]: Non-Toxic; Activity [20]: Non-Toxic; Activity [21]: Non-Toxic; Activity [22]: Non-Toxic; Activity [23]: Non-Toxic
CN(C)c1ccc(-c2nc3c4ccccc4c4ccccc4c3n2CCCC[N+](C)(C)CC(=O)N2CCSCC2)cc1.[Br-] | 16 | > 128 | 16 | 16 | 16 | 16 | 16 | 16 | 16 | 16 | 16 | 16 | > 640 | > 40 | –
CN(C)c1ccc(-c2nc3c4ccccc4c4ccccc4c3n2CCCCC[N+](C)(C)CC(=O)N2CCSCC2)cc1.[Br-] | 4 | > 128 | 8 | 8 | 4 | 4 | 8 | 4 | 4 | 4 | 4 | 8 | > 640 | > 160 | –
CCCCCNC(=O)C[N+](C)(C)CCCCCn1c(-c2ccc(N(C)C)cc2)nc2c3ccccc3c3ccccc3c21.[Br-] | 2 | 64 | 4 | 2 | 2 | 2 | 2 | 2 | 2 | 2 | 2 | 4 | 572 | 286 | –
CCCNC(=O)C[N+](C)(C)CCCn1c(-c2ccc(N(C)C)cc2)nc2c3ccccc3c3ccccc3c21.[Br-] | 32 | > 128 | 64 | 32 | 64 | 32 | 64 | 64 | 32 | 64 | 32 | 64 | > 640 | > 20 | –
CCNC(=O)C[N+](C)(C)CCCCCn1c(-c2ccc(N(C)C)cc2)nc2c3ccccc3c3ccccc3c21.[Br-] | 16 | 128 | 32 | 32 | 32 | 32 | 32 | 32 | 16 | 32 | 32 | 32 | > 640 | > 40 | –
CCCNC(=O)C[N+](C)(C)CCCCn1c(-c2ccc(N(C)C)cc2)nc2c3ccccc3c3ccccc3c21.[Br-] | 8 | 64 | 16 | 8 | 8 | 8 | 16 | 8 | 4 | 4 | 8 | 16 | 290 | 36.3 | –
CCCCN(CCCC)C(=O)C[N+](C)(C)CCCCn1c(-c2ccc(N(C)C)cc2)nc2c3ccccc3c3ccccc3c21.[Br-] | 1 | 64 | 2 | 1 | 0.5 | 1 | 2 | 0.5 | 0.5 | 1 | 1 | 1 | 79.5 | 79.5 | –
CCN(CC)C(=O)C[N+](C)(C)CCCn1c(-c2ccc(N(C)C)cc2)nc2c3ccccc3c3ccccc3c21.[Br-] | 64 | > 128 | 64 | 64 | 64 | 64 | 64 | 128 | 64 | 128 | 64 | 64 | > 640 | > 10 | –
CC(C)N(C(=O)C[N+](C)(C)CCCCCn1c(-c2ccc(N(C)C)cc2)nc2c3ccccc3c3ccccc3c21)C(C)C.[Br-] | 4 | > 128 | 4 | 4 | 4 | 4 | 4 | 4 | 4 | 2 | 4 | 4 | 688 | 167 | –
CCCN(CCC)C(=O)C[N+](C)(C)CCCCn1c(-c2ccc(N(C)C)cc2)nc2c3ccccc3c3ccccc3c21.[Br-] | 4 | 128 | 4 | 4 | 4 | 4 | 4 | 4 | 4 | 4 | 4 | 4 | 213 | 53.3 | –
CC(C)N(C(=O)C[N+](C)(C)CCCCn1c(-c2ccc(N(C)C)cc2)nc2c3ccccc3c3ccccc3c21)C(C)C.[Br-] | 8 | > 128 | 8 | 8 | 8 | 8 | 8 | 8 | 8 | 8 | 8 | 8 | > 640 | > 80 | –
